Experimental data from ChEMBL document CHEMBL1129865, “Synthesis, evaluation, and crystallographic analysis of L-371,912: A potent and selective active-site thrombin inhibitor” (Bioorg Med Chem Lett, 1997).

Key:
[1] = Concentration required to double the activated partial thromboplastin time in human plasma was determined; format: functional
Rattus norvegicus [2] = experiment: Efficacy by observing the number of occulation in rat when a dose of 6 ug/Kg/min iv. administration; 1/6; format: functional
Serine protease 1 = target: T1, Serine protease 1 (Bos taurus, UniProt P00760); experiment: In vitro inhibition against bovine trypsin was determined
T1 sequence (P00760 whole entry): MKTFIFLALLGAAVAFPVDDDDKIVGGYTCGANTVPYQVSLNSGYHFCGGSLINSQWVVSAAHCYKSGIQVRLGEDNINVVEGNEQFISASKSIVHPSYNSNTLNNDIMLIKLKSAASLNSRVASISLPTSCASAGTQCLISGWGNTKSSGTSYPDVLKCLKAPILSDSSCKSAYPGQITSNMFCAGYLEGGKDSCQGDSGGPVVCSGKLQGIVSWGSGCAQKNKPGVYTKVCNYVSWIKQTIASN

Rattus norvegicus [3] = experiment: Efficacy by observing the number of occulation in rat when a dose of 6 ug/Kg/min iv. administration; 3/6; format: functional

SMILES	APPTT [1]	Occulations (Rattus norvegicus [2])	Ki (Serine protease 1)	Occulations (Rattus norvegicus [3])
CN[C@H](Cc1ccccc1)C(=O)N1CCC[C@H]1C(=O)NC[C@H]1CC[C@H](N)CC1	1.1 µM	1		
CNC(=O)C(=O)[C@@H](NC(=O)[C@@H]1CCCN1C(=O)[C@@H](Cc1ccccc1)NC)[C@H]1CC[C@H](N)CC1	2 µM		1150 nM	3
